Results on two compounds are retold here after ChEMBL document CHEMBL1681705, “Optimisation of ITK inhibitors through successive iterative design cycles” (Bioorg Med Chem Lett, 2011).

Assay [1] can be described thus: Inhibition of PKA at 0.1 uM; values are per cent of control.
Assay [2] addresses T1, Ephrin type-B receptor 4 (Homo sapiens) (UniProt P54760).
T1 sequence (whole entry): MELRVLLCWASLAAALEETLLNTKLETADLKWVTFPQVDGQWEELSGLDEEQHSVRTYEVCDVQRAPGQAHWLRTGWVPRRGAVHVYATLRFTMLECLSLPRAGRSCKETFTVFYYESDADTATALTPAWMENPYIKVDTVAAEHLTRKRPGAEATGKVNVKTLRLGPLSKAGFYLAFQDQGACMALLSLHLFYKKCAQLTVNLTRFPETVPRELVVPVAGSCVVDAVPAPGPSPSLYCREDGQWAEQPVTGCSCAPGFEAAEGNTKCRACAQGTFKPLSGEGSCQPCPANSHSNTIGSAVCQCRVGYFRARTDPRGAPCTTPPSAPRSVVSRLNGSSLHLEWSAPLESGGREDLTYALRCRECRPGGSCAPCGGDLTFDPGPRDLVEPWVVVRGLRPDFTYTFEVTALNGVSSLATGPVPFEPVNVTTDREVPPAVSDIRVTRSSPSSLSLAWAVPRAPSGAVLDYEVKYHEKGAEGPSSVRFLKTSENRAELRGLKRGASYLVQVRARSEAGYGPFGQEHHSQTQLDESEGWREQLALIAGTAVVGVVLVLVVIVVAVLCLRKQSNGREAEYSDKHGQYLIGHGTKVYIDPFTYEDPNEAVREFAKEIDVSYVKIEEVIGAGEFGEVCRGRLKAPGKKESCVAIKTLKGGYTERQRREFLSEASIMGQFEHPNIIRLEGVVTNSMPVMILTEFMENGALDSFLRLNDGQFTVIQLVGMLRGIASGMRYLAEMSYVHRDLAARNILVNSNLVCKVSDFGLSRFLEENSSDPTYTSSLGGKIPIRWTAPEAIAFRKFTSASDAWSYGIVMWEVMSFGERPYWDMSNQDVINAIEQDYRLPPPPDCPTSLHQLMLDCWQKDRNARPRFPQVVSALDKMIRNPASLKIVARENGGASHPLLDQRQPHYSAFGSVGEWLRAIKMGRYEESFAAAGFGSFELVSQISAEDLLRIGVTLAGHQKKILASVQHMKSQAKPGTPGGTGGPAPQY
As to the kind of experiment: Inhibition of EphB4 at 0.1 uM; values are per cent of control.

The target of assay [3] is Proto-oncogene tyrosine-protein kinase Src (Homo sapiens) (UniProt P12931). The assay is described as follows: Inhibition of c-SRC at 0.1 uM; values are per cent of control.
The target of assay [4] is Ribosomal protein S6 kinase alpha-1 (Homo sapiens) (UniProt Q15418). As to the kind of experiment: Inhibition of Rsk1 at 0.1 uM; values are per cent of control.
Assay [5] has the same target. As to the kind of experiment: Inhibition of Rsk1 at 1 uM.
Assay [6] deals with Tyrosine-protein kinase JAK2 (Homo sapiens) (UniProt O60674). As to the kind of experiment: Inhibition of JAK2 at 0.1 uM; values are per cent of control.
In assay [7] the target is Tyrosine-protein kinase Yes (Homo sapiens) (UniProt P07947). As to the kind of experiment: Inhibition of Yes at 1 uM; values are per cent of control.
In assay [8] the target is T2, Serine/threonine-protein kinase TBK1 (Homo sapiens) (UniProt Q9UHD2).
T2 sequence (whole entry): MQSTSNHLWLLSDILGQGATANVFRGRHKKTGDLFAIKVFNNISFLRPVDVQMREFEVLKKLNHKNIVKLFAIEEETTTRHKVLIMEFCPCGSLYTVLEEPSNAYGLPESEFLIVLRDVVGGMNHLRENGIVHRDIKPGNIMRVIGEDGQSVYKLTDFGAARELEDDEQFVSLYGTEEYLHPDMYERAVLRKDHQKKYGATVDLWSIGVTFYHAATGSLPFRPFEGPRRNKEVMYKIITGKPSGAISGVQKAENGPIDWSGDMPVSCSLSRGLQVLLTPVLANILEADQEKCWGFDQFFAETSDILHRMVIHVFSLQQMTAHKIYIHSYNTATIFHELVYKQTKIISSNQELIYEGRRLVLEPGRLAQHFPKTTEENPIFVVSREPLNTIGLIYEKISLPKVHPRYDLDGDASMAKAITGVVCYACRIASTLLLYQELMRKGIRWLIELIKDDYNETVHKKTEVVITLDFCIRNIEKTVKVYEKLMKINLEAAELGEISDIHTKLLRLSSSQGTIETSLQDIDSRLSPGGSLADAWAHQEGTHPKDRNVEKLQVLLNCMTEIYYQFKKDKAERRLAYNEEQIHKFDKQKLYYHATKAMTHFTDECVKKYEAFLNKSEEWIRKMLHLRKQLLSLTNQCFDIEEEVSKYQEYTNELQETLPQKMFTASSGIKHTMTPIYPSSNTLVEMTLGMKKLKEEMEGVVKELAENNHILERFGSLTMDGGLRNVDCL
The assay is described as follows: Inhibition of TBK1 at 0.1 uM; values are per cent of control.

In assay [9] the target is Mitogen-activated protein kinase 1 (Homo sapiens) (UniProt P28482). The assay is described as follows: Inhibition of MAPK1 at 0.1 uM; values are per cent of control.
The target in assay [10] is Tyrosine-protein kinase Fer (Homo sapiens) (UniProt P16591). As to the kind of experiment: Inhibition of Fer at 1 uM; values are per cent of control.
For assay [11], the target named is Tyrosine-protein kinase JAK2 (Homo sapiens) (UniProt O60674). The assay is described as follows: Inhibition of JAK2 at 1 uM; values are per cent of control.
The nature of assay [12]: cells. The settings on record: Homo sapiens, T-cell.
Description: Antiinflammatory activity in human CD4+ T cell assessed as inhibition of anti-CD3/anti-CD28-induced IL-2 production treated 30 mins before anti-CD3/anti-CD28 challenge measured after 48 hrs by electro-chemiluminescence assay

Broadly, the inhibition is the drop in the measured response relative to a control, in per cent. As a reminder, the IC50 is the concentration needed to halve the response being measured. A low value points to higher potency.

Tyrosine-protein kinase JAK2 (Homo sapiens), sequence (O60674 whole entry): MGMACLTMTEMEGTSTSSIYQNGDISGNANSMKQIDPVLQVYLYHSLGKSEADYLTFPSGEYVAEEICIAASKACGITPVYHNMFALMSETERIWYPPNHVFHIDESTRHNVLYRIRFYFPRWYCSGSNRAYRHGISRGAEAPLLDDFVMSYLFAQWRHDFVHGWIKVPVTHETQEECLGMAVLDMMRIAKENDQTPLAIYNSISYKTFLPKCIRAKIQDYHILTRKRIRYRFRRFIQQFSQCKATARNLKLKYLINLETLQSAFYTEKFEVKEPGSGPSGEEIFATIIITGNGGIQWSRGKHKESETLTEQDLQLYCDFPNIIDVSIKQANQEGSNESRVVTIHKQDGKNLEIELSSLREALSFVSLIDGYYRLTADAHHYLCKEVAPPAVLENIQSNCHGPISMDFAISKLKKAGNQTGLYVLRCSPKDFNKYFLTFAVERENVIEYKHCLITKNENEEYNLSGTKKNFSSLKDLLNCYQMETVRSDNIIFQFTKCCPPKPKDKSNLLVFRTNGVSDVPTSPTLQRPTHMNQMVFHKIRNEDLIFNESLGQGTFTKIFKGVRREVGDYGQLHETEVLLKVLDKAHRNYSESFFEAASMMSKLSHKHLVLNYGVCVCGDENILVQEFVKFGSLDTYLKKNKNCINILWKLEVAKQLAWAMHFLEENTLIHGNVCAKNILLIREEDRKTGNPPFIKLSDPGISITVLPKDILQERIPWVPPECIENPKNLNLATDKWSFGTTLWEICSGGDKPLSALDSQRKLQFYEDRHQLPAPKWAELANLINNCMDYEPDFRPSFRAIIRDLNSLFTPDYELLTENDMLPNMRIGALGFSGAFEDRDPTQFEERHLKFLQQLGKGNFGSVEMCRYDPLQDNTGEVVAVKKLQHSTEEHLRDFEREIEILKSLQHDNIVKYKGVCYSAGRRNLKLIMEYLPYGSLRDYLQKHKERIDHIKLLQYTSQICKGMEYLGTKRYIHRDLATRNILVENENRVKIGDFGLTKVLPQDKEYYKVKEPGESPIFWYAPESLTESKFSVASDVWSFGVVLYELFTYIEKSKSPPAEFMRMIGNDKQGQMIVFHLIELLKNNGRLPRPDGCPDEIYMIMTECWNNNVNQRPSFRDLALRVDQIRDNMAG
Ribosomal protein S6 kinase alpha-1 (Homo sapiens), sequence (Q15418 whole entry): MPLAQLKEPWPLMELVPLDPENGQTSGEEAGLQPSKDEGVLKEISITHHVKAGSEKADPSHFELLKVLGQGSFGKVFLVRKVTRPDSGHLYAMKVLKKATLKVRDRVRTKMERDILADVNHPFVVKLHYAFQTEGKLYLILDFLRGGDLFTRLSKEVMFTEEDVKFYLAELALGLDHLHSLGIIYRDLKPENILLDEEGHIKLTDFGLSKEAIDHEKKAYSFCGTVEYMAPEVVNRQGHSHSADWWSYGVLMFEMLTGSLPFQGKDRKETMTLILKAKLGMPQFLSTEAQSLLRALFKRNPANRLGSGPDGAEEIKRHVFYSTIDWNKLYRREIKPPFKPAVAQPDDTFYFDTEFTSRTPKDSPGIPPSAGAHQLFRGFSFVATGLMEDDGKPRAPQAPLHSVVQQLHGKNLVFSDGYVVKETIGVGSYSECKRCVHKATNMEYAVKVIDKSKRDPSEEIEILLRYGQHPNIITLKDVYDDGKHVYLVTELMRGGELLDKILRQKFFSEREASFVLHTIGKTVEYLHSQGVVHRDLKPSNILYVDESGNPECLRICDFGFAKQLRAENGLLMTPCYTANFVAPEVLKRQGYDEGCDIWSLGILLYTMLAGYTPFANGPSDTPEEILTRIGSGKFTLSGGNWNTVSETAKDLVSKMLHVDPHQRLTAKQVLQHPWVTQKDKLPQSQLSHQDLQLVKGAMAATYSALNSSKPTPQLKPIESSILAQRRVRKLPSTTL
Mitogen-activated protein kinase 1 (Homo sapiens), sequence (P28482 whole entry): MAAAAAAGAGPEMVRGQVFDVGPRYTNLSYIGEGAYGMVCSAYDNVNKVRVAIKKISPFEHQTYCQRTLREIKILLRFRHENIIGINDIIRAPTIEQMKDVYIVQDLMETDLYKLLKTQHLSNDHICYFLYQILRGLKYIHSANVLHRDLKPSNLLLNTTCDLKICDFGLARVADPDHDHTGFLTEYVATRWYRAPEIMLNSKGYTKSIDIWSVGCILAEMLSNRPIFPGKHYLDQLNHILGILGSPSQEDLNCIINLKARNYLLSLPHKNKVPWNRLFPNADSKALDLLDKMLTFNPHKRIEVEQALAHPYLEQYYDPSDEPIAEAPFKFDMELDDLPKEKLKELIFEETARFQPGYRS
Proto-oncogene tyrosine-protein kinase Src (Homo sapiens), sequence (P12931 2-536 limits assumed): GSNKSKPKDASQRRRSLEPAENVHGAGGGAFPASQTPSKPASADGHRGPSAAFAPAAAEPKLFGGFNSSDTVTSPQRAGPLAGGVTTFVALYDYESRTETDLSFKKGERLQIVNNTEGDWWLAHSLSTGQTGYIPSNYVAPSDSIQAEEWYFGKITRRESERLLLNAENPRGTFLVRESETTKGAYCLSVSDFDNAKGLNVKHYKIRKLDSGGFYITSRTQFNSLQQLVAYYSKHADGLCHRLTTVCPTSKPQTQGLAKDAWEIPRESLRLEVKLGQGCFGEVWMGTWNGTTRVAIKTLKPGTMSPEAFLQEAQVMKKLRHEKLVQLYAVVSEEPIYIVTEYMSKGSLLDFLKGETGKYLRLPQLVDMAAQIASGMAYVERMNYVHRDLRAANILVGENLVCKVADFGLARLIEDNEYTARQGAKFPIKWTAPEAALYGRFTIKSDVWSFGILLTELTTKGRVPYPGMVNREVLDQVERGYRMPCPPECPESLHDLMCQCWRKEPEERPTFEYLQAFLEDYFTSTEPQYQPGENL
Tyrosine-protein kinase Fer (Homo sapiens), sequence (P16591 whole entry, looked up): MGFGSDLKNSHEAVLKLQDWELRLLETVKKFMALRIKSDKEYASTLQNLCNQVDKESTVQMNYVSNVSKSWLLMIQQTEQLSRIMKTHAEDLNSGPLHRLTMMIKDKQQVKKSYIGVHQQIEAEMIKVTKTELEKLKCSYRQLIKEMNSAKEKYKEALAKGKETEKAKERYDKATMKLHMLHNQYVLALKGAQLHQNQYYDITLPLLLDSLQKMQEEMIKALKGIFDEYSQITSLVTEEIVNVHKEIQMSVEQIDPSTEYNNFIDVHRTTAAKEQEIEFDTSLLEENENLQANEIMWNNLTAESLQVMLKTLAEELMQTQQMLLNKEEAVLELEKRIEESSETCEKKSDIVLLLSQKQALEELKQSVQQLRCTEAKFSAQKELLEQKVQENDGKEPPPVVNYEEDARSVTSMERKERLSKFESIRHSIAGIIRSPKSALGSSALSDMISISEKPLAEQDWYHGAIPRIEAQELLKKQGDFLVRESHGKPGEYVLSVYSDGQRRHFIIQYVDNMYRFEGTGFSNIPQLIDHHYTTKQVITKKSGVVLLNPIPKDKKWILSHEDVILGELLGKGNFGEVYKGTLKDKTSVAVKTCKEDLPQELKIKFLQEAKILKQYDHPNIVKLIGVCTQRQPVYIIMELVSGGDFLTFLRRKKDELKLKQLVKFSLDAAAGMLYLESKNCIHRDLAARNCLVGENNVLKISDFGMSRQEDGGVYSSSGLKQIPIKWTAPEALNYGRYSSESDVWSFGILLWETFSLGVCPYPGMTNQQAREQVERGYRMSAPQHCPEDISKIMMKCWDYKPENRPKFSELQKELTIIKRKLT
Tyrosine-protein kinase Yes (Homo sapiens), sequence (P07947 2-543 limits assumed): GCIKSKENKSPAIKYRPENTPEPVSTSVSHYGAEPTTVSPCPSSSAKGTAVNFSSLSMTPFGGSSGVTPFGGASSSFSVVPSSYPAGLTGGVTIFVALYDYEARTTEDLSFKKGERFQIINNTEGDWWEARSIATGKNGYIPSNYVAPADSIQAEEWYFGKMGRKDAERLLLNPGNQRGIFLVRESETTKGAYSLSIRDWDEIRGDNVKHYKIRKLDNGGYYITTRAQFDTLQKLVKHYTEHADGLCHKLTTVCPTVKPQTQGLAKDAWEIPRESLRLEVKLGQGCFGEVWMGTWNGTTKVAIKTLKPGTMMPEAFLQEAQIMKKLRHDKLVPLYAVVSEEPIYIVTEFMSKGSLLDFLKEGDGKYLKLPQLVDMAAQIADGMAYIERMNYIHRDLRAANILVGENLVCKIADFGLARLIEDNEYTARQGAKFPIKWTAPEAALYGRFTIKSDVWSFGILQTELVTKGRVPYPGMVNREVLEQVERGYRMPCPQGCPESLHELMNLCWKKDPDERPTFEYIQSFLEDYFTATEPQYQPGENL

Consider `Cc1ccc2cc(-c3n[nH]c4ccc(NC5CCNC5)cc34)[nH]c2c1` (centres undefined), for which the residual activity turned out to be 42% in assay [1]; 106% in assay [2]; 16% in assay [3]; 6% in [4]; 2% in assay [6]; 0% in assay [7]. Besides, the residual activity came out at 19% in assay [8], 85% in assay [9], 2% in [10] and 0% in assay [11]. For the same compound, the inhibition in assay [5] is -1%. The same compound yielded an IC50 in [12] of 20 nM.
With `Cc1ccc2cc(-c3n[nH]c4ccc(NC5CCN(Cc6ccccc6)CC5)cc34)[nH]c2c1`, the residual activity is 41% in assay [1]; 101% in assay [2]; 31% in [3]; 97% in assay [4]; 16% in [6]; -3% in assay [7]. Also, the residual activity in assay [8] was 53%; in assay [9], 88%; in [10], 3%; in assay [11], 2%. Besides, the inhibition in assay [5] was 1%. For the same compound, the IC50 in [12] turned out to be 500 nM.
